# Source: patent US12343326B2, “Psychoactive medicines and their use for treating psychiatric and neurological conditions and disorders” (Transcend Therapeutics, Inc., priority 2021, dated 2025)
# Columns and labels:
# Assay in all cases: β-arrestin based GPCR screen (PathHunter / GPCRmax), antagonist mode
# [1] = target: 168 GPCRs (Homo sapiens, UniProt P25024)
# [2] = tested on: 168 GPCRs
# [3] = target: 168 GPCRs (Homo sapiens, UniProt P21730); settings: C5AR1, Antagonist
# [4] = target: 168 GPCRs (Homo sapiens, UniProt O95838); settings: GLP2R
# Chain of 168 GPCRs (Homo sapiens, UniProt O95838) (O95838 whole entry): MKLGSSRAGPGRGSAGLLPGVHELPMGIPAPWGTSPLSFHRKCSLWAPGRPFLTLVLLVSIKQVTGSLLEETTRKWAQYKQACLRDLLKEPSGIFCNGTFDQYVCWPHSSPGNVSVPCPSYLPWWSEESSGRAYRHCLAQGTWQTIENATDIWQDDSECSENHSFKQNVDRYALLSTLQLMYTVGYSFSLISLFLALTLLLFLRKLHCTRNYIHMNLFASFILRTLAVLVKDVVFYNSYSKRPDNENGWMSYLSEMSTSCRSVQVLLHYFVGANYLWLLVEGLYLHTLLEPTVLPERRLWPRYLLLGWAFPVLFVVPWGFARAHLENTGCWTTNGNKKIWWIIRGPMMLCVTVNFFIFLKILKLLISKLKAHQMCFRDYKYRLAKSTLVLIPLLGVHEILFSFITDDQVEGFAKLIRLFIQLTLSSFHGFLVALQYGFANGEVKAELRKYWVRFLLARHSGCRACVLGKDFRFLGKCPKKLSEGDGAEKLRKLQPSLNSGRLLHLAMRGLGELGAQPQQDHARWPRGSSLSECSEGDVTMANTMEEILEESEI
# [5] = target: 168 GPCRs (Homo sapiens, UniProt P25021)
# Chain of 168 GPCRs (Homo sapiens, UniProt P25021) (P25021 whole entry): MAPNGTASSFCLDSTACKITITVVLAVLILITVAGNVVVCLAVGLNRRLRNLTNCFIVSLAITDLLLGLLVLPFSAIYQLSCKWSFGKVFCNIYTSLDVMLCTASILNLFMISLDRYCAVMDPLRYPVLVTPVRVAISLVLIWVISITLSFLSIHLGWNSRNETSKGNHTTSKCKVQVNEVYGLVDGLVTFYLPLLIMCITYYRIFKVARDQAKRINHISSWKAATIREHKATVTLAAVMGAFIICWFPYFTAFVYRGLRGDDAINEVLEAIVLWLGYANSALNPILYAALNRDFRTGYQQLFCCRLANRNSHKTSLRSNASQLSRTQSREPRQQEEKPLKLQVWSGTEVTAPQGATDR
# [6] = target: 168 GPCRs (Homo sapiens, UniProt P47871); settings: GCGR
# [7] = target: 168 GPCRs (Homo sapiens, UniProt P08912); settings: CHRM5, Antagonist
# Chain of 168 GPCRs (Homo sapiens, UniProt P08912) (P08912 whole entry): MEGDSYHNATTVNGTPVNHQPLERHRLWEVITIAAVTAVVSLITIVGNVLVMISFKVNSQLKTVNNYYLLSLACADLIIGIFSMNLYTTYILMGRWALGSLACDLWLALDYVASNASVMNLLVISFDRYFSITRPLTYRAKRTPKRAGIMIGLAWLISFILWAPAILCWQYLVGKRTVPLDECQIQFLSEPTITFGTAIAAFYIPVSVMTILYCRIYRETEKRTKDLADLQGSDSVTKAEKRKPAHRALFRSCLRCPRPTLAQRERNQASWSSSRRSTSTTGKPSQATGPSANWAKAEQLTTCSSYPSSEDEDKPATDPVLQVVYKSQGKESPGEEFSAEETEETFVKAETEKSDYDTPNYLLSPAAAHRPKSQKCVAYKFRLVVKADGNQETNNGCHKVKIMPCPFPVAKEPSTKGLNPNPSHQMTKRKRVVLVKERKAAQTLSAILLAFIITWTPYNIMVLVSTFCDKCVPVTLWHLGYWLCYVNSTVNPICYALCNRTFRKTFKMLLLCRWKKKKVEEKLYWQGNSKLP
# [8] = target: 168 GPCRs (Homo sapiens, UniProt P46091)
# [9] = target: 168 GPCRs (Homo sapiens, UniProt Q8NFJ6)
# Chain of 168 GPCRs (Homo sapiens, UniProt Q8NFJ6) (Q8NFJ6 whole entry): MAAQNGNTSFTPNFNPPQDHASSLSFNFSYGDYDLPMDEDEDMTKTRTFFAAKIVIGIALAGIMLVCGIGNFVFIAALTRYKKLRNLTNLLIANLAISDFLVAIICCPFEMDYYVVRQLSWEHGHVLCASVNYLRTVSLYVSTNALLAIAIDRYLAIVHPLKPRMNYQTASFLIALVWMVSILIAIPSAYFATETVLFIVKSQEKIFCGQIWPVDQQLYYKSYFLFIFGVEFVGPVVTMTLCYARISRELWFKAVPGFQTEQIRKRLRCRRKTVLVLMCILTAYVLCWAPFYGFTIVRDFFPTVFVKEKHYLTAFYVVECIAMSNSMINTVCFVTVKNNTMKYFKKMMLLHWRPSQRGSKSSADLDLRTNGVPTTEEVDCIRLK
# [10] = target: 168 GPCRs (Homo sapiens, UniProt P18825); settings: ADRA2C, Antagonist
# [11] = target: 168 GPCRs (Homo sapiens, UniProt Q9H3N8)
# [12] = target: 168 GPCRs (Homo sapiens, UniProt P21554)
# Chain of 168 GPCRs (Homo sapiens, UniProt P21554) (P21554 whole entry): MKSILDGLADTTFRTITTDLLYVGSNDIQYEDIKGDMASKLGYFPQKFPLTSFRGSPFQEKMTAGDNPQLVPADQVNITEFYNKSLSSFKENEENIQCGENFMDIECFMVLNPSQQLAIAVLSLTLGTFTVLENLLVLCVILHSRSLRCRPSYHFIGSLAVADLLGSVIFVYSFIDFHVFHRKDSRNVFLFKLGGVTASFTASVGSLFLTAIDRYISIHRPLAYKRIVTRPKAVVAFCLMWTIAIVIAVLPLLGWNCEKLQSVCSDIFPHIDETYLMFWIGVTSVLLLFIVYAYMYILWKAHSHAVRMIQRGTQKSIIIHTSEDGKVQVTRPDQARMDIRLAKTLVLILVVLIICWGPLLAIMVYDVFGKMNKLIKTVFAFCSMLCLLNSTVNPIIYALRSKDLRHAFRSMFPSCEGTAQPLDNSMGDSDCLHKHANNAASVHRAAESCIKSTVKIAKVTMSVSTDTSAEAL
# [13] = target: 168 GPCRs (Homo sapiens, UniProt P32302)
# [14] = target: 168 GPCRs (Homo sapiens, UniProt P30556); settings: AGTR1, Antagonist
# Chain of 168 GPCRs (Homo sapiens, UniProt P30556) (P30556 whole entry): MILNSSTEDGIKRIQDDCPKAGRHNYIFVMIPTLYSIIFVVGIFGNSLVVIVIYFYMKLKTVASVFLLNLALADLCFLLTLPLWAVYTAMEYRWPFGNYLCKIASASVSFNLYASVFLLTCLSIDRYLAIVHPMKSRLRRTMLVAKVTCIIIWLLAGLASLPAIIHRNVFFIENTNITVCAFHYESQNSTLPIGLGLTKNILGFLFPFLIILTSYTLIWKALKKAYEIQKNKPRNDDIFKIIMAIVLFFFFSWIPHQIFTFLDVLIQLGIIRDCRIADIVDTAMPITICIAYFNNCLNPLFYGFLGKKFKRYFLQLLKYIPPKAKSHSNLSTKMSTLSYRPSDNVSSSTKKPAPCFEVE
# [15] = target: 168 GPCRs (Homo sapiens, UniProt Q01726); settings: MC1R
# Chain of 168 GPCRs (Homo sapiens, UniProt Q01726) (Q01726 whole entry): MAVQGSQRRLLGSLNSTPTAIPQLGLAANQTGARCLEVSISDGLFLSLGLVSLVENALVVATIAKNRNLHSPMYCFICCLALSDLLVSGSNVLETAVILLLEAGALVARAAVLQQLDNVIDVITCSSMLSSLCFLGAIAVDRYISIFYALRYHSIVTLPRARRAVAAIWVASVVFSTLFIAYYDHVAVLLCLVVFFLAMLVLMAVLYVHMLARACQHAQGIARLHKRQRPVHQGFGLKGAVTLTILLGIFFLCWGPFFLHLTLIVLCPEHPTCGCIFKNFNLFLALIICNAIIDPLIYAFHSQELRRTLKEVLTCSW
# [16] = target: 168 GPCRs (Homo sapiens, UniProt P49238)
# Chain of 168 GPCRs (Homo sapiens, UniProt P49238) (P49238 whole entry): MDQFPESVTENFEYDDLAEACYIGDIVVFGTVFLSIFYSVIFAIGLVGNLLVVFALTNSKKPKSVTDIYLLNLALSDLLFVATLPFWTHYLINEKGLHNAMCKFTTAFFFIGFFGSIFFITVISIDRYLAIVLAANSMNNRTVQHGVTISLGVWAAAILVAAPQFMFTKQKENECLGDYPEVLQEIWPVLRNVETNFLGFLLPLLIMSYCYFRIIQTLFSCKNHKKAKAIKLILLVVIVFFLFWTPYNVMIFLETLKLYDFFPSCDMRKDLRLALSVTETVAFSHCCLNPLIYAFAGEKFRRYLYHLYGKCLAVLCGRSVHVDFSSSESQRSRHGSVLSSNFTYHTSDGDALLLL
# [17] = target: 168 GPCRs (Homo sapiens, UniProt P43116)
# [18] = target: 168 GPCRs (Homo sapiens, UniProt Q9H244)
# [19] = target: 168 GPCRs (Homo sapiens, UniProt P35414); settings: AGTRL1, Antagonist
# [20] = target: 168 GPCRs (Homo sapiens, UniProt P48039); settings: MTNR1A
# Chain of 168 GPCRs (Homo sapiens, UniProt P48039) (P48039 whole entry): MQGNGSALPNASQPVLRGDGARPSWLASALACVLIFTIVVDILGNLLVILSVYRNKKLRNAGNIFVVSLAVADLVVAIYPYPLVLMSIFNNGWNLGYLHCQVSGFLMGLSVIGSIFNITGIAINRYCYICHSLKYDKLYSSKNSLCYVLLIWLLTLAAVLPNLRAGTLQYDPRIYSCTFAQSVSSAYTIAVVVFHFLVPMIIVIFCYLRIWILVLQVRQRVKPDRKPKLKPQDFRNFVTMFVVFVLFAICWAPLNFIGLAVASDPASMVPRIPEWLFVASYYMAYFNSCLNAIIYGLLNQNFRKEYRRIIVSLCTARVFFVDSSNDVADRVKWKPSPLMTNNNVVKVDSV
# [21] = target: 168 GPCRs (Homo sapiens, UniProt P30988); settings: Antagonist
# Chain of 168 GPCRs (Homo sapiens, UniProt P30988) (P30988 25-474): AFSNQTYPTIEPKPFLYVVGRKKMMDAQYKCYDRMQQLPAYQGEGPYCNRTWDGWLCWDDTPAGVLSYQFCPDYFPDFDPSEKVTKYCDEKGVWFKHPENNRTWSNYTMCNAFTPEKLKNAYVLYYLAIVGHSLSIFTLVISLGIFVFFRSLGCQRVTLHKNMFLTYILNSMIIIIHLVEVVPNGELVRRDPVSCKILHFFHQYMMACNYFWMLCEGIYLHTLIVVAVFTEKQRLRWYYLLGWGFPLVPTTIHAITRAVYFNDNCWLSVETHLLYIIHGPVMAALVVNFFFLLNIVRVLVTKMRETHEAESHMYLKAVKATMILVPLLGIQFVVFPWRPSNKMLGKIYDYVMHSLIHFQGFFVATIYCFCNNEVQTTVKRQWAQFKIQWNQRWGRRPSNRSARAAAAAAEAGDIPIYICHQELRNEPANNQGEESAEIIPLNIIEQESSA
# [22] = target: 168 GPCRs (Homo sapiens, UniProt P34981); settings: TRHR
# Chain of 168 GPCRs (Homo sapiens, UniProt P34981) (P34981 whole entry): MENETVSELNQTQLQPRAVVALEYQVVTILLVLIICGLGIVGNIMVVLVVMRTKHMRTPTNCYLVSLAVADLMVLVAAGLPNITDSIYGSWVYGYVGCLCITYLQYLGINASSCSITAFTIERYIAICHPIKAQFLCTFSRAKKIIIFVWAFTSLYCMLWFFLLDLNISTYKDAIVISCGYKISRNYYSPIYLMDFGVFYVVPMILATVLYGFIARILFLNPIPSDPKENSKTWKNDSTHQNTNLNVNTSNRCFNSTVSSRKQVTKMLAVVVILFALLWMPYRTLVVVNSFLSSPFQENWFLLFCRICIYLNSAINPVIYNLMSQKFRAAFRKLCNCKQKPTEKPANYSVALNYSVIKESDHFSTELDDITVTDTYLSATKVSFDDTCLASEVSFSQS
# Chain of 168 GPCRs (Homo sapiens, UniProt P21730) (P21730 whole entry): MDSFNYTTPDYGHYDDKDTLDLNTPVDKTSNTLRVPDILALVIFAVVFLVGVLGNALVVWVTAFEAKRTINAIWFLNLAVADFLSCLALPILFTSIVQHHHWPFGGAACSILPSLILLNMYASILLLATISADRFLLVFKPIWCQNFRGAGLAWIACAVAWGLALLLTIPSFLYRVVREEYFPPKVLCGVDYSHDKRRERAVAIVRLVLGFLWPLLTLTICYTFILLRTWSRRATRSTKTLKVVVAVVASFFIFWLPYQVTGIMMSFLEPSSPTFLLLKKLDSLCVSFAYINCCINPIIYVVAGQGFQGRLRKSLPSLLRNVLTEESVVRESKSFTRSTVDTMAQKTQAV
smiles,measurement,setting,value
"CNC(C)C(=O)c1ccc2c(c1)OCO2 (stereo not drawn) [methylone, 3,4-methylenedioxy-N-methylcathinone]",activity at 10 µM,"[1]; CXCR1, Antagonist mode, 10 uM",3.1%
same,activity at 1 µM,"[1]; CXCR1, Antagonist, 1 uM",12.1%
same,antagonist activity at any of the 168 GPCRs (criterion >50% inhibition),[2]; 1 and 10 micromolar,did not meet criteria for agonist or antagonist activity
same,% Activity,"[2]; DRD2S, Antagonist mode, 10 uM",−11.6%
same,% Activity,"[2]; DRD2S, Antagonist, 1 uM",3.6%
same,% Activity,"[2]; NPSR1b, Antagonist mode, 10 uM",−7.6%
same,% Activity,"[2]; NPSR1b, Antagonist, 1 uM",−10.6%
same,activity at 1 µM,[3]; 1 uM,8.9%
same,activity at 10 µM,[3]; 10 uM,5%
same,activity at 10 µM,"[4]; Antagonist mode, 10 uM",5.4%
same,activity at 1 µM,"[4]; Antagonist, 1 uM",5.4%
same,activity at 10 µM,"[5]; HRH2, Antagonist mode, 10 uM",8.1%
same,activity at 1 µM,"[5]; HRH2, Antagonist, 1 uM",7.1%
same,activity at 10 µM,"[6]; Antagonist mode, 10 uM",-7.7%
same,activity at 1 µM,"[6]; Antagonist, 1 uM",-16%
same,activity at 1 µM,[7]; 1 uM,-8%
same,activity at 10 µM,[7]; 10 uM,-7.6%
same,activity at 10 µM,"[8]; GPR1, Antagonist mode, 10 uM",7.4%
same,activity at 1 µM,"[8]; GPR1, Antagonist, 1 uM",4.4%
same,activity at 10 µM,"[9]; PROKR2, Antagonist mode, 10 uM",6.8%
same,activity at 1 µM,"[9]; PROKR2, Antagonist, 1 uM",2%
same,activity at 1 µM,[10]; 1 uM,-4.3%
same,activity at 10 µM,[10]; 10 uM,17.6%
same,activity at 10 µM,"[11]; HRH4, Antagonist mode, 10 uM",-14%
same,activity at 1 µM,"[11]; HRH4, Antagonist, 1 uM",-11.6%
same,activity at 10 µM,"[12]; CNR1, Antagonist mode, 10 uM",-17.1%
same,activity at 1 µM,"[12]; CNR1, Antagonist, 1 uM",-3.5%
same,activity at 10 µM,"[13]; CXCR5, Antagonist mode, 10 uM",-15.1%
same,activity at 1 µM,"[13]; CXCR5, Antagonist, 1 uM",-4.3%
same,activity at 1 µM,[14]; 1 uM,3.3%
same,activity at 10 µM,[14]; 10 uM,-1.4%
same,activity at 10 µM,"[15]; Antagonist mode, 10 uM",15.9%
same,activity at 1 µM,"[15]; Antagonist, 1 uM",20.1%
same,activity at 10 µM,"[16]; CX3CR1, Antagonist mode, 10 uM",-6.1%
same,activity at 1 µM,"[16]; CX3CR1, Antagonist, 1 uM",-0.2%
same,activity at 10 µM,"[17]; PTGER2, Antagonist mode, 10 uM",-4.4%
same,activity at 1 µM,"[17]; PTGER2, Antagonist, 1 uM",12.7%
same,activity at 10 µM,"[18]; P2RY12, Antagonist mode, 10 uM",-10.4%
same,activity at 1 µM,"[18]; P2RY12, Antagonist, 1 uM",-14.8%
same,activity at 1 µM,[19]; 1 uM,-3.3%
same,activity at 10 µM,[19]; 10 uM,-4.1%
same,activity at 10 µM,"[20]; Antagonist mode, 10 uM",7.8%
same,activity at 1 µM,"[20]; Antagonist, 1 uM",30.8%
same,activity at 1 µM,[21]; CALCR-RAMP2,-10.6%
same,activity at 10 µM,[21]; CALCR-RAMP2,-19.6%
same,activity at 1 µM,[21]; CALCR-RAMP3,-8.9%
same,activity at 10 µM,[21]; CALCR-RAMP3,3.3%
same,activity at 1 µM,[21]; CALCR,5.4%
same,activity at 10 µM,[21]; CALCR,-4.4%
same,activity at 10 µM,"[22]; Antagonist mode, 10 uM",2.8%
same,activity at 1 µM,"[22]; Antagonist, 1 uM",-7.2%
